Earlier results, collected in patent US20050065130A1, “Pharmaceutical compositions and methods comprising combinations of 2-alkylidene-19-nor-vitamin D derivatives and a cyclooxgenase-2 inhibitor” (Pfizer Inc., priority 2003, published 2005).

| Compound | serum calcium value (as printed: twice the dose, at the 130 pmol dose) [mg/100 ml] | bone calcium mobilization (in words) (chronic mode 7 days, both dose levels (130 and 260 pmol/day)) | activity on bone calcium mobilization (serum calcium), times that of the native hormone 1,25-(OH)2D3 (relative to 1,25-(OH)2D3, chronic mode 7 days) |
| --- | --- | --- | --- |
| C=C1/C(=C\C=C2/CCC[C@]3(C)[C@@H]([C@H](C)CCCC(C)(C)O)CC[C@@H]23)C[C@@H](O)C[C@@H]1O [1,25-(OH)2D3, 1,25-dihydroxyvitamin D3, reference compound] | 13.8 | – | – |
| C=C1[C@H](O)CC(=C/C=C2\CCC[C@]3(C)[C@@H]([C@H](C)CCCC(C)(C)O)CC[C@@H]23)C[C@H]1O [2-Methylene-19-Nor-1,25-(OH)2D3, 1α,25-dihydroxy-2-methylene-19-nor-vitamin D3] | – | extremely strong | 10-100 times |
